Results reported in US20220175710A1, “COMBINATION THERAPY” (Akershus Universitetssykehus HF, priority 2019, published 2022).
Entries after “also recorded” stand apart in the source; their conditions may differ.

Key:
Type in all cases: cell-based, human
CHRNA7 [1] = experiment: Western blot of CHRNA7 (56 kDa band) in TPA differentiated THP-1 cells; details: for CHRNA7 (56 kDa protein) expression, conclusion in words: Table 1 / FIG. 4, both experiments
Method: The cellular samples were tested for the presence of the α7 subtype of the nicotinic acetylcholine receptor (nAChR) by Western blot analysis on THP-1 cells that were incubated with and without Abeta1-42 and with and without DHA. The purpose of this was to show monocytic membrane expression of nAChR and to explore altered regulation of this receptor in response to DHA stimulation.
The THP-1 cells were seeded in 6-well plates with 2 mL per well at a concentration of 830 000 cells/mL (experiment 1) or 860 000 cells/ml (experiment 2), and differentiated using 100 nM TPA (12-O-Tetradecanoylphorbol-13-Acetate) for 24 hours. For the experiments, DHA was added to give a concentration of 100 uM (experiment 1) or 10 uM and 100 uM (experiment 2), and Aβ42 was added at a final concentration of 2.5 ng/ul.
The cells were incubated overnight (18 hours). Each DHA experiment had parallels of cells not incubated with DHA. After incubation the cells were kept cold, scraped loose and transferred to 15-ml tubes. Cells were washed twice with cold PBS before resuspended in 100 ul PBS and transferred to an Eppendorf tube. The cells were lysed through five freeze thaw cycles, and total protein in each sample was determined by the BCA protein assay. Samples were stored at −80° C. upon analysis.
Western blot analysis was performed cat no 21379-1-AP, Proteintech, using 1:1000 using dilution. The secondary antibody was a goat anti-rabbit IgG-HRP (cat no 4030-05, Southern Biotech) diluted 1:2000. Solvents for dilutions were as described below.
Samples were dissolved in 4× Laemmli buffer w/ b-ME (BioRad and, respectively) denatured at 95° C. for 5 min, and a quantity of 12 μg protein/sample/well was loaded to the gel. A volume of 10 uL of Precision Plus protein Dual Xtra Color Standards (BioRad) was used for molecular weight estimation. The samples were resolved in 8-16% gradient SDS-PAGE (Criterion TGX precast gels, BioRad) and immunoblotted onto PVDF membranes (GE Healthcare). Membranes were blocked in 5% non-fat dried milk in 1× Tris Buffered Saline containing 0.1% Tween20 (1×TBS-T) (BioRad) at room temperature for 1 h and incubated overnight at 4° C. with primary antibodies in 1×TBS-T with 1% non-fat dried milk. After washing, the membranes were incubated with secondary antibody in 5% non-fat dried milk in 1×TBS-T for 1 h at room temperature. The blots were visualized by ECL Plus Western blotting detection system (GE Healthcare) according to the supplier's instructions. Membranes were visualized on the LAS-3000 mini (Fujifilm Corporation) and band intensities were quantified using MultiGauge analysis software (Fujifilm Corporation).
Bands presented are at the predicted MW of the nAChR (56 kDa).
(§1) DHA: Docosahexaenoic acid, Aβ1-40 peptides: the conventional amyloid beta peptide containing 40 amino acids.

CHRNA7 [2] = experiment: Quantitative PCR of CHRNA7 transcription in THP-1 monocyte cultures; details: for CHRNA7 ("N") transcription relative to TPA-treated unstimulated condition / N/M ratio (CHRNA7/CHRFAM7A transcription): FIG. 7; for CHRNA7 ("N") transcription relative to TPA-treated unstimulated condition: overnight; for CHRNA7 transcription (quantitative PCR): FIG. 6
Method: (§2) The human acute monocytic leukemia cell line THP-1 (ATCC TIB-202, ATCC, US) was cultured in RPMI 1640 with GlutaMax (Gibco, Life Technologies, UK) supplemented with 10% fetal bovine serum (FBS), (Gibco, Life Technologies, UK) and 1% Antibiotic/Antimycotic (Gibco, Life Technologies, UK) at 37° C. and 5% CO2.
(§3) 1,6 million cells were seeded in each well in 6-well plates and differentiated to macrophages by a 48 h treatment of 100 nM TPA (12-O-tetradecanoylphorbol-13-acetate), (Cell Signaling Technology, US). Cells were treated with 100 μM Docosahexaenoic acid (DHA), (Sigma Aldrich, Germany), 10 ng/ul Amyloid beta 1-40 (Aβ), (ApexBio, US), 10 μM PNU-120596, (Sigma Aldrich, Germany), 40 μM Galanthamine hydrobromide, (Sigma Aldrich, Germany) and combinations overnight (approximately 20 h).
(§4) Total RNA was isolated with the RNeasy Plus Mini kit (Qiagen) using genomic DNA eliminator columns. THP-1 cells were lysed directly in the wells using 350 μl RLT Plus according to the protocol and stored at −80° C. The frozen lysate was incubated at 37° C. in a water bath until completely thawed and homogenized using QIAshredder (Qiagen) spin columns. RNA was eluted in 30 μl RNase free water and the quantity assessed using the NanoDrop ND-1000 Spectrophotometer (NanoDrop Technologies).
(§5) 1 μg total RNA was reverse transcribed using the QuantiTect cDNA Reverse Transcription Kit (Qiagen). Due to low CHRNA7 expression (Cq values>38, Table 2), we increased RNA input to 2 μg, changed the reverse transcription kit to High Capacity Reverse Transcription Kit (Life Technologies AS) and the cDNA was preamplified using TaqMan PreAmp Master Mix (Life Technologies AS), running 18 cycles and diluted 1:20 (FIG. 7). We then obtained Cq values<27 (average 25,4) for CHRNA7 and <20 (average 18,6 for CHRFAM7A). Absolute quantification was run using CHRFAM7A and CHRNA7 synthetic oligonucleotides standards (GeneArt, Life Technologies AS). 2.5 ul cDNA diluted 1:20 after preamplification was applied per qPCR reaction using TaqMan gene expression assays CHRFAM7A (Hs04189909_m1) and CHRNA7 (Hs01063372_m1) (Thermo Fisher) and TaqMan Gene expression Master Mix (Life Technologies AS) in a total volume of 10 μl and run in triplicates on Quant Studio 7 (Applied Biosystems).

CHRFAM7A [3] = experiment: Quantitative PCR of CHRFAM7A transcription in THP-1 monocyte cultures; details: for CHRFAM7A ("M") transcription relative to TPA-treated unstimulated condition: FIG. 7, overnight; for CHRFAM7A transcription (quantitative PCR): FIG. 6
Method: as §2, §3, §4, §5

CHRFAM7A [4] = experiment: Western blot of CHRFAM7A in differentiated THP-1 cells; details: FIG. 5
Source text: as §1

CHRNA7 [5] = experiment: Western blot of CHRNA7 (56 kDa band) in TPA differentiated THP-1 cells; details: FIG. 5; co-stimulation with DHA and Aβ1-40 peptide, compared with DHA alone
THP-1 cells = experiment: IP LC-MS of Abeta-40 degradation in monocytic THP-1 cells
Method: Firstly, a cell model was used to study the effect of the omega-3 fatty acid DHA on degradation of amyloid beta. Here, the THP-1 cells were incubated with and without DHA (1 μM), and subsequently with Abeta (1-40 aa, 10 ng/μL). Secondly, monocyte from healthy controls (NC) and patients with neurodegenerative diseases (AD) were isolated. In both these cases, the cells were lysed and IP LC-MS was performed.
In FIG. 1, each bar in the graph represents the accumulated cleavage sites on each position along the 40 amino acids in Abeta 1-40. Thus the bar contains peptides of various lengths, but with the same start or end amino acid. Three parallels were analysed for each condition/sample group, which refers to the triplicate incubations of each condition, with or without DHA.
Monocytic THP-1 cells were used as a model system, and IP LC-MS as analytical approach to investigate the effect of DHA on monocytic Abeta-40 processing.
A THP-1 cell line culture was matured and differentiated, split to be control and stimulated parallels and this was replicated to be performed a total of 7 times (controls n=7; DHA stimulated n=7). Test cells were incubated with DHA overnight, and all samples were incubated with Abeta-40 for 1 to 2 hours. The cells were lysed by freeze-thaw cycles prior to immunoprecipitation performed with two commercial and one in-house antibody. […]

[6] = stimulus as labelled, nothing else added, 100 μM DHA, 10 μM PNU-120596, 40 μM Galanthamine hydrobromide, 10 ng/ul Aβ 1-40
[7] = co-stimulation with DHA and Aβ1-40 peptide, compared with DHA alone
[8] = stimulus as labelled plus Amyloid β 1-40 10 ng/ul

Question: What does the source list for “Ab1-42: the conventional amyloid beta peptide containing 42 amino acids”?
Answer: ~56 kDa Band signal intensity (CHRNA7 [1]; Exp 1, Ab1-42 only, 2.5 ng/ul, 18 hours): 1.7E+06; ~56 kDa Band signal intensity (CHRNA7 [1]; Exp 2, Ab1-42 only, 2.5 ng/ul, 18 hours): 2.1E+06; CHRNA7 (56 kDa protein) expression, conclusion in words (CHRNA7 [1]): lower expression

Question: Which results are given for “Amyloid 13: the conventional amyloid beta peptide containing 40 amino acids”?
Answer: CHRNA7 ("N") transcription relative to TPA-treated unstimulated condition (CHRNA7 [2]; [6]): reduced; CHRFAM7A ("M") transcription relative to TPA-treated unstimulated condition (CHRFAM7A [3]; [6]): reduced

Question: What does the source list for COc1cc(OC)c(NC(=O)Nc2cc(C)on2)cc1Cl [PNU-120596]?
Answer: CHRNA7 ("N") transcription relative to TPA-treated unstimulated condition (CHRNA7 [2]; [6]): smaller changes; CHRFAM7A ("M") transcription relative to TPA-treated unstimulated condition (CHRFAM7A [3]; [6]): smaller changes

Question: How did the “CHRNA7 transcription (quantitative PCR)” value (CHRNA7 [2]; DHA alone) turn out when CC/C=C\C/C=C\C/C=C\C/C=C\C/C=C\C/C=C\CCC(=O)O [DHA, (4Z, 7Z, 10Z, 13Z, 16Z, 19Z)-4,7, 10, 13, 16, 19-docosahexaenoic acid] was run?
Answer: increase

Question: And the “CHRNA7 transcription (quantitative PCR)” value (CHRNA7 [2]; [7])?
Answer: more pronounced

Question: What about the “N/M ratio (CHRNA7/CHRFAM7A transcription)” value (CHRNA7 [2]; [8]) of the same molecule?
Answer: increased; also recorded: higher

Question: And the “CHRNA7 ("N") transcription relative to TPA-treated unstimulated condition” value (CHRNA7 [2]; [8])?
Answer: unaltered; also recorded: increases

Question: What about the “N/M ratio (CHRNA7/CHRFAM7A transcription)” value (CHRNA7 [2]; stimulus as labelled, no Amyloid β added) of the same molecule?
Answer: increased

Question: What about the “CHRNA7 ("N") transcription relative to TPA-treated unstimulated condition” value (CHRNA7 [2]; [6]) of the same molecule?
Answer: stable

Question: And the “CHRFAM7A expression (Western blot)” value (CHRFAM7A [4]; DHA alone)?
Answer: decrease

Question: And the “CHRFAM7A expression (Western blot)” value (CHRFAM7A [4]; [7])?
Answer: more pronounced

Question: What about the “CHRFAM7A transcription (quantitative PCR)” value (CHRFAM7A [3]; DHA alone) of the same molecule?
Answer: decrease

Question: And the “CHRFAM7A transcription (quantitative PCR)” value (CHRFAM7A [3]; [7])?
Answer: more pronounced

Question: What about the “CHRFAM7A ("M") transcription relative to TPA-treated unstimulated condition” value (CHRFAM7A [3]; [8]) of the same molecule?
Answer: reduces

Question: What about the “CHRFAM7A ("M") transcription relative to TPA-treated unstimulated condition” value (CHRFAM7A [3]; [6]) of the same molecule?
Answer: reduced

Question: What about the “~56 kDa Band signal intensity” value (CHRNA7 [1]; Exp 1, 100 uM Dha alone, TPA differentiated THP-1, 18 hours) of the same molecule?
Answer: 3.5E+06

Question: What about the “~56 kDa Band signal intensity” value (CHRNA7 [1]; Exp 1, Ab1-42 (2.5 ng/ul) + 100 uM Dha, 18 hours) of the same molecule?
Answer: 3.0E+06

Question: What about the “~56 kDa Band signal intensity” value (CHRNA7 [1]; Exp 2, Ab1-42 (2.5 ng/ul) + 10 uM Dha, 18 hours) of the same molecule?
Answer: 2.6E+06

Question: And the “~56 kDa Band signal intensity” value (CHRNA7 [1]; Exp 2, Ab1-42 (2.5 ng/ul) + 100 uM Dha, 18 hours)?
Answer: 2.7E+06

Question: What about the “CHRNA7 expression (Western blot)” value (CHRNA7 [1]; FIG. 5, DHA alone) of the same molecule?
Answer: increase

Question: And the “CHRNA7 (56 kDa protein) expression, conclusion in words” value (CHRNA7 [1])?
Answer: upregulation

Question: What about the “CHRNA7 expression (Western blot)” value (CHRNA7 [5]) of the same molecule?
Answer: more pronounced

Question: And the “Abeta cut pattern (enzymatic activities), DHA versus no DHA” value (THP-1 cells; DHA 1 μM, then Abeta 1-40 10 ng/μL, FIG. 1)?
Answer: differing enzymatic activities

Question: What about the “average ratio of catabolic peptides in DHA versus control samples” value (THP-1 cells; DHA overnight, then Abeta-40 for 1 to 2 hours, controls n=7, DHA stimulated n=7, semi-quantitative) of the same molecule?
Answer: 1.3 (12% RSD)
